The target in this experiment is T1, Nav1.7 voltage-gated sodium channel (Homo sapiens, UniProt Q15858).
T1 construct: Gene(s) encoding the full-length protein of the voltage-gated sodium channel of interest are cloned and expressed; expressed in transfected cells
T1 sequence (Q15858 whole entry): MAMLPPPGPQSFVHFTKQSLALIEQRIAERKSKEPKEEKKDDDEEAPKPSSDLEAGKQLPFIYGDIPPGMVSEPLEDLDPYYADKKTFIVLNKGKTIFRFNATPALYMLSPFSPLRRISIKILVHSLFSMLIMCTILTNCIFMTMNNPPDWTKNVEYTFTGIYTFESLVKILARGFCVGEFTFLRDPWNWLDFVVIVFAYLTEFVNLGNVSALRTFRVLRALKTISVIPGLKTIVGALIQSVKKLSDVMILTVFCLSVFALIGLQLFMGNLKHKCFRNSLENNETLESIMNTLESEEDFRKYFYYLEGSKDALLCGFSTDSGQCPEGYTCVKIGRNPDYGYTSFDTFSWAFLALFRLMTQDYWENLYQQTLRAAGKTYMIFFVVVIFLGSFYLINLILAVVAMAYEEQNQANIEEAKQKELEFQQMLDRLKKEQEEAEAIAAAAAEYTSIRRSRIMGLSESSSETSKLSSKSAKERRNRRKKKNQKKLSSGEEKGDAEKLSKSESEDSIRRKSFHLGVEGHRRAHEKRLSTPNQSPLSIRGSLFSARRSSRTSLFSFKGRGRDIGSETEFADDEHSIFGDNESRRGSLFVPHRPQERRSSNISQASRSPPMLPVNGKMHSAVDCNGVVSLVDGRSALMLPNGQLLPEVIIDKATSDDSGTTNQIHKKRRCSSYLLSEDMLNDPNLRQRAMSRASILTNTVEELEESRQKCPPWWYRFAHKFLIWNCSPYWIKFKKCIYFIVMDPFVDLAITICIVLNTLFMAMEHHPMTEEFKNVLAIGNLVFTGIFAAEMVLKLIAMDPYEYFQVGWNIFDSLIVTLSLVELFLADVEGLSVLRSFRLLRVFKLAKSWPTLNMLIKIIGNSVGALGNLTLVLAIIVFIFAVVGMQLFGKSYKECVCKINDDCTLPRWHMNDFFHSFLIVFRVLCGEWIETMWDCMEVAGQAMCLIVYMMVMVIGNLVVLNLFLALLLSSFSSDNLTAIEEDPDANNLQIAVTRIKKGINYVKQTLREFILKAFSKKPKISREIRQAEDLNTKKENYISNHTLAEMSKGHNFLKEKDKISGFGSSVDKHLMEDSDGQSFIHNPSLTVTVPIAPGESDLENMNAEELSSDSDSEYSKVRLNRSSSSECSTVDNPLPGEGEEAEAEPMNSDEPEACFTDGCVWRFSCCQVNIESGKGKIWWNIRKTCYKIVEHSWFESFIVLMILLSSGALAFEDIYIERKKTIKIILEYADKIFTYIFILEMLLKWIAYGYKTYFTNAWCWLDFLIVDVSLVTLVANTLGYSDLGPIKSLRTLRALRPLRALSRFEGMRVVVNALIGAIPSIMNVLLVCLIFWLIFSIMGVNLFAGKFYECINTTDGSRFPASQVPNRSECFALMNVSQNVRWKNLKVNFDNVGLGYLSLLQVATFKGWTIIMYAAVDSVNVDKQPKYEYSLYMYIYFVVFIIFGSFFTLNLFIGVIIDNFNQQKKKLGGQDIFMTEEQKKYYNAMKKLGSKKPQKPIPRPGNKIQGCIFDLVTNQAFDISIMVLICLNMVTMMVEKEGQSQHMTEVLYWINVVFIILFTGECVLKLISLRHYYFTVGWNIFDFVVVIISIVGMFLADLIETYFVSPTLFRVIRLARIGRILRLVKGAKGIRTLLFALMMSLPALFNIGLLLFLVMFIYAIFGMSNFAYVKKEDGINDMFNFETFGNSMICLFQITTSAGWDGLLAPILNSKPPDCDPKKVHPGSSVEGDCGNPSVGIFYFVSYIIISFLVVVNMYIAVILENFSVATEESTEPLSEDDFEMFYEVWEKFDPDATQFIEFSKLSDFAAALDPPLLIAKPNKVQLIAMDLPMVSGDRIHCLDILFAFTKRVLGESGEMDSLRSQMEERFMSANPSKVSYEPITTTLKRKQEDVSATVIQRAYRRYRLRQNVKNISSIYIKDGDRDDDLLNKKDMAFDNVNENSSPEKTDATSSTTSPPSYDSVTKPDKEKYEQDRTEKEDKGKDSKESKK
The experiment is described as follows: Whole-cell voltage clamp electrophysiology assay. As to conditions: cells stably expressing the voltage-gated sodium channel of interest. The format is cell-based. In outline:
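Cells expressing full-length channel, exposed to drug by integrated pipetting on automated patch-clamp platforms or by microperfusion in conventional whole-cell patch clamp. Channels activated by a voltage protocol depolarising from a defined holding potential; buffers per platform manufacturer.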
The compound `Cc1ncc(-c2cccc3c2C[C@H](NC(=O)c2ccc(OC4CCOCC4)nc2)CO3)cn1` [Example 155, N-[(3S)-5-(2-methylpyrimidin-5-yl)-3,4-dihydro-2H-chromen-3-yl]-6-(tetrahydro-2H-pyran-4-yloxy)nicotinamide] showed an IC50 of 1260 nM.
Compound `Cc1ncc(-c2cccc3c2C[C@H](NC(=O)c2cnc(NCCC(F)(F)F)nc2)CO3)cn1` [Example 201, N-[(3S)-5-(2-methylpyrimidin-5-yl)-3,4-dihydro-2H-chromen-3-yl]-2-[(3,3,3-trifluoropropyl)amino]pyrimidine-5-carboxamide] gave an IC50 of 398 nM.
Regarding `Cc1ncc(-c2cccc3c2C[C@H](NC(=O)c2ccc(OC4CCC4)nc2)CO3)cn1` [Example 105, 6-(cyclobutyloxy)-N-[(3S)-5-(2-methylpyrimidin-5-yl)-3,4-dihydro-2H-chromen-3-yl]nicotinamide], the IC50 is 63.1 nM. Compared with the last compound, the IC50 is about 6.3-fold lower.
The same measure for `O=C(N[C@@H]1COc2cccc(-c3ccncc3)c2C1)c1ccc(OCC2CC2)nc1` [Example 30, 6-(cyclopropylmethoxy)-N-[(3S)-5-pyridin-4-yl-3,4-dihydro-2H-chromen-3-yl]nicotin-amide]: 200 nM.
`COc1cnc(C(=O)N[C@@H]2COc3cccc(-c4cnc(OC)c(F)c4)c3C2)cn1` [Example 79, N-[(3S)-5-(5-fluoro-6-methoxypyridin-3-yl)-3,4-dihydro-2H-chromen-3-yl]-5-methoxypyrazine-2-carboxamide]: half-maximal inhibition (IC50) was put at 1260 nM.
The compound `COc1ccc(-c2cccc3c2C[C@H](NC(=O)c2ccc(OCCC(F)(F)F)nc2)CO3)cn1` [Example 77, N-[(3S)-5-(6-methoxypyridin-3-yl)-3,4-dihydro-2H-chromen-3-yl]-6-(3,3,3-trifluoropropoxy)nicotinamide] had an IC50 of 126 nM. This IC50 lies about 10-fold lower than the previous one.
Next, `O=C(N[C@@H]1COc2cccc(-c3ccccn3)c2C1)c1ccc(OC(F)(F)F)cc1` [Example 5, N-[(3S)-5-Pyridin-2-yl-3,4-dihydro-2H-chromen-3-yl]-4-(trifluoromethoxy)-benzamide]: 1580 nM; `O=C(N[C@@H]1COc2cccc(-c3ccncc3)c2C1)c1ccc(OC2CCCC2)nc1` [Example 21, 6-(cyclopentyloxy)-N-[(3S)-5-pyridin-4-yl-3,4-dihydro-2H-chromen-3-yl]nicotin-amide]: 63.1 nM.
As for `CCCCn1ccc(C(=O)N[C@@H]2COc3cccc(-c4cnc(OC)nc4)c3C2)cc1=O` [Example 150, 1-butyl-N-[(3S)-5-(2-methoxypyrimidin-5-yl)-3,4-dihydro-2H-chromen-3-yl]-2-oxo-1,2-dihydropyridine-4-carboxamide], half-maximal inhibition (IC50) required 1000 nM.
The same measure for `CC#CCOc1ccc(C(=O)N[C@@H]2CCc3cccc(-c4cnc(OC)nc4)c3C2)cn1` [Example 168, 6-(but-2-yn-1-yloxy)-N-[(2R)-8-(2-methoxypyrimidin-5-yl)-1,2,3,4-tetrahydronaphthalen-2-yl]nicotinamide]: 6310 nM.
As for `COc1ncc(-c2cccc3c2C[C@H](NC(=O)c2ccc(OC4CCOCC4)nc2)CC3)cn1` [Example 156, N-[(2R)-8-(2-methoxypyrimidin-5-yl)-1,2,3,4-tetrahydronaphthalen-2-yl]-6-(tetrahydro-2H-pyran-4-yloxy)nicotinamide], it took 2000 nM to reach half-maximal inhibition (IC50).
`Cc1noc(C)c1-c1cccc2c1C[C@H](NC(=O)c1ccc(OC(C)C)nc1)CC2` [Example 31, N-[(2R)-8-(3,5-dimethylisoxazol-4-yl)-1,2,3,4-tetrahydronaphthalen-2-yl]-6-isopropoxy-nicotinamide] gave an IC50 of 2510 nM.
Compound `O=C(N[C@@H]1CCc2cccc(-c3ccncc3)c2C1)c1ccc(OC2CCCC2)nc1` [Example 15, 6-(cyclopentyloxy)-N-[(2R)-8-pyridin-4-yl-1,2,3,4-tetrahydronaphthalen-2-yl]nicotin-amide] showed an IC50 of 25.1 nM.
Regarding `Cc1ncc(-c2cccc3c2C[C@H](NC(=O)c2ccc(C(=O)N(C)CC(F)(F)F)nc2)CO3)cn1` [Example 173, N^2-methyl-N^5-[(3S)-5-(2-methylpyrimidin-5-yl)-3,4-dihydro-2H-chromen-3-yl]-N^2-(2,2,2-trifluoroethyl)pyridine-2,5-dicarboxamide], the IC50 is 1580 nM.
Next, `Cc1ncc(-c2cccc3c2C[C@H](NC(=O)c2ccc(OCCCF)nc2)CO3)cn1` [Example 101, 6-(3-fluoropropoxy)-N-[(3S)-5-(2-methylpyrimidin-5-yl)-3,4-dihydro-2H-chromen-3-yl]nicotinamide]: 158 nM; `COc1ncc(-c2cccc3c2C[C@H](NC(=O)c2ccc(OCCC(F)(F)F)nc2)CC3)cn1` [Example 84, N-[(2R)-8-(2-methoxypyrimidin-5-yl)-1,2,3,4-tetrahydronaphthalen-2-yl]-6-(3,3,3-trifluoropropoxy)nicotinamide]: 398 nM; `Cc1ccc(-c2cccc3c2C[C@H](NC(=O)c2cnc(OC4CCCOC4)nc2)CC3)cn1` (stereo partly drawn) [Example 147, N-[(2R)-8-(6-methylpyridin-3-yl)-1,2,3,4-tetrahydronaphthalen-2-yl]-2-(tetrahydro-2H-pyran-3-yloxy)pyrimidine-5-carboxamide]: 1580 nM.
The same measure for `Cc1ncc(-c2cccc3c2C[C@H](NC(=O)c2ccc(C(=O)NCCCOC(C)C)nc2)CO3)cn1` [Example 186, N^2-(3-isopropoxypropyl)-N^5-[(3S)-5-(2-methylpyrimidin-5-yl)-3,4-dihydro-2H-chromen-3-yl]pyridine-2,5-dicarboxamide]: 2000 nM.
Consider `COc1ncc(-c2cccc3c2C[C@H](NC(=O)c2ccc(COCC(F)(F)F)nc2)CO3)cc1F` [Example 193, N-[(3S)-5-(5-fluoro-6-methoxypyridin-3-yl)-3,4-dihydro-2H-chromen-3-yl]-6-[(2,2,2-trifluoroethoxy)methyl]nicotinamide], for which the IC50 is 158 nM.
Next, `O=C(N[C@@H]1COc2cccc(-c3ccnc(F)c3)c2C1)c1ccc(OCCC(F)(F)F)nc1` [Example 63, N-[(3S)-5-(2-fluoropyridin-4-yl)-3,4-dihydro-2H-chromen-3-yl]-6-(3,3,3-trifluoropropoxy)nicotinamide]: 79.4 nM; `O=C(N[C@@H]1COc2cccc(-c3ccnnc3)c2C1)c1ccc(OCCC(F)(F)F)nc1` [Example 81, N-[(3S)-5-pyridazin-4-yl-3,4-dihydro-2H-chromen-3-yl]-6-(3,3,3-trifluoropropoxy)nicotinamide]: 398 nM; `COc1cc(-c2cccc3c2C[C@H](NC(=O)c2ccc(OCC(F)(F)F)nc2)CO3)c(OC)nn1` [Example 98, N-[(3S)-5-(3,6-dimethoxypyridazin-4-yl)-3,4-dihydro-2H-chromen-3-yl]-6-(2,2,2-trifluoroethoxy)nicotinamide]: 6310 nM.
Next, `COc1ncc(-c2cccc3c2C[C@H](NC(=O)c2ccc(OC(C)C)nc2)CO3)cn1` [Example 55, 6-isopropoxy-N-[(3S)-5-(2-methoxypyrimidin-5-yl)-3,4-dihydro-2H-chromen-3-yl]nicotinamide]: 316 nM; `O=C(N[C@@H]1COc2cccc(-c3cnc(C4CC4)nc3)c2C1)c1ccc(OCCOCC(F)(F)F)nc1` [Example 177, N-[(3S)-5-(2-cyclopropylpyrimidin-5-yl)-3,4-dihydro-2H-chromen-3-yl]-6-[2-(2,2,2-trifluoroethoxy)ethoxy]nicotinamide]: 50.1 nM; `CS(=O)(=O)c1ccc(-c2cccc3c2C[C@H](NC(=O)c2ccc(OCCOCC(F)(F)F)nc2)CO3)cn1` [Example 175, N-{(3S)-5-[6-(methylsulfonyl)pyridin-3-yl]-3,4-dihydro-2H-chromen-3-yl}-6-[2-(2,2,2-trifluoroethoxy)ethoxy]nicotinamide]: 2510 nM.
Compound `COCCOc1ccc(C(=O)N[C@@H]2COc3cccc(-c4ccc(F)nc4)c3C2)cn1` [Example 143, N-[(3S)-5-(6-fluoropyridin-3-yl)-3,4-dihydro-2H-chromen-3-yl]-6-(2-methoxyethoxy)nicotinamide] showed an IC50 of 1580 nM.
`Cc1cncc(-c2cccc3c2C[C@H](NC(=O)c2ccc(OCCOCC(F)(F)F)nc2)CO3)n1` [Example 182, N-[(3S)-5-(6-methylpyrazin-2-yl)-3,4-dihydro-2H-chromen-3-yl]-6-[2-(2,2,2-trifluoroethoxy)ethoxy]nicotinamide] had an IC50 of 63.1 nM.
As to `COc1ncc(-c2cccc3c2C[C@H](NC(=O)c2ccnc(OC(C)C)c2)CO3)cn1` [Example 107, 2-isopropoxy-N-[(3S)-5-(2-methoxypyrimidin-5-yl)-3,4-dihydro-2H-chromen-3-yl]isonicotinamide], the IC50 was 3980 nM. This IC50 is about 63-fold higher than that of the compound before.
The compound `Cc1noc(C)c1-c1cccc2c1C[C@H](NC(=O)c1ccc(OS(=O)(=O)C(F)(F)F)cc1)CC2` [Example 11, 4-{[(2R)-8-(3,5-Dimethylisoxazol-4-yl)-1,2,3,4-tetrahydronaphthalen-2-yl]carbamoyl}phenyl trifluoromethanesulfonate] showed an IC50 of 631 nM.
Next, `O=C(N[C@@H]1COc2cccc(-c3ccncc3)c2C1)c1ccc(C(=O)NC2CCOCC2)nc1` [Example 130, N^5-[(3S)-5-pyridin-4-yl-3,4-dihydro-2H-chromen-3-yl]-N^2-(tetrahydro-2H-pyran-4-yl)pyridine-2,5-dicarboxamide]: 3980 nM; `COc1cnc(C(=O)N[C@@H]2COc3cccc(-c4cnc(OC)nc4)c3C2)cn1` [Example 83, 5-methoxy-N-[(3S)-5-(2-methoxypyrimidin-5-yl)-3,4-dihydro-2H-chromen-3-yl]pyrazine-2-carboxamide]: 5010 nM.
Next, `CO[C@H](C)COc1ccc(C(=O)N[C@@H]2COc3cccc(-c4ccncc4)c3C2)cn1` [Example 128, 6-{[(2R)-2-methoxypropyl]oxy}-N-[(3S)-5-pyridin-4-yl-3,4-dihydro-2H-chromen-3-yl]nicotinamide]: 1000 nM.
The compound `CC(C)Oc1ncc(C(=O)N[C@@H]2COc3cccc(-c4ccncc4)c3C2)cn1` [Example 36, 2-isopropoxy-N-[(3S)-5-pyridin-4-yl-3,4-dihydro-2H-chromen-3-yl]pyrimidine-5-carboxamide] gave an IC50 of 1260 nM.

As usually defined, the IC50 is the point on the concentration scale where inhibition reaches its midpoint. Low values mean higher potency, high ones lower potency.

For the origin of these results see patent US8143408B2, “N-(8-heteroaryltetrahydronaphtalene-2yl) or N-(5-heteroarylchromane-3-yl) carboxamide derivatives for the treatment of pain” (AstraZeneca AB, priority 2007, dated 2012).
